Data on three molecules can be found in patent US9474790B2, “Stable, protracted GLP-1/glucagon receptor co-agonists for medical use” (Novo Nordisk A/S, priority 2013, dated 2016).

As usually defined, the pIC50 is the negative decadic logarithm of the IC50, by convention in mol/L. Usually pEC50 stands for the EC50 on a negative log10 scale, so that one unit is a factor of ten.

pEC50, pIC50: −log10 of the molar value. Numbered stars: 1 amine (or outer) side, 2 acyl side, 3 side chain; on linkers, the order of the positions; unused ones are H or OH. Square brackets hold non-standard residues; d marks the D form. Side chains are listed from the residue outwards. Peptide text beside a SMILES is read from it. * marks the point of attachment. C18 diacid = O=C(O)CCCCCCCCCCCCCCCCC(=O)*; γGlu = O=C(O)[C@H](CCC(=O)[*:2])N[*:1]; AEEA = NCCOCCOCC(=O)O; Aib = CC(C)(N)C(=O)O

A short description of data set [1]: Chemical stability assessment by RP-UPLC. It counts as physicochemical. Particulars: 333 μM, 8 mM phosphate buffer pH 7.3, 37° C. vs 5° C. Here is the method:
The purpose of this assay was to assess the chemical stability of the glucagon derivatives of the invention in aqueous solutions.
Chemical stability of glucagon derivatives or analogues was investigated by RP-UPLC separation and UV detection. Lyophilized samples were dissolved in a 8 mM Phosphate buffer pH 8.6, followed by adjustment to pH 7.3.using HCl to a final concentration of 333 μM. Samples were incubated for 14 days at 5° C. and 37° C. followed by RP-UPLC analysis. Purity was defined as the area percentage of the main peak in relation to the total area of all integrated peaks in each chromatogram. Purity loss after 14 days at 37° C. was determined as the difference in purity between the samples incubated at 5° C. and 37° C., divided by the purity of the sample after incubation for 14 days at 5° C.
RP-UPLC analysis was performed using a Waters BEH130 2.1 mm×150 mm, 1.7 μm column operated at 50° C. and a flow rate of 0.4 mL/min using a mobile phase system consisting of A: 0.05% TFA in MQ-water B: 0.05% TFA in Acetonitrile. UV-detection was performed at 215 nm. The typical gradient profile used for most of the samples is shown below.
For some individual derivatives or analogues eluting at substantially different retention times compared with the majority of derivatives or analogues, some adjustments to the gradient profile were made to better enable purity assessment comparison across samples. The data confirmed the improved chemical stability of the glucagon derivatives of this invention.

Data set [2] is described as follows: Thioflavin T (ThT) fibrillation assay for physical stability. The data set is classed as physicochemical. The following applies: 250 μM in 10 mM HEPES buffer, pH 7.5, 37° C., shaking 960 rpm. The essentials:
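Peptide at 250 μM in 10 mM HEPES pH 7.5 with 1 μM ThT, at 37° C with 960 rpm orbital shaking. Fluorescence (ex 444/em 485 nm) read every 20 min after 10 min pre-incubation; sigmoidal fit gives lag time (t0−2τ) and kapp (1/τ). Recovery is RP-HPLC peptide in the centrifuged, 0.22 μm-filtered supernatant as % of initial.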

Data set [3] deals with T1, human GLP-1 receptor (Homo sapiens, UniProt P43220).
T1 construct: expressed in transfected cells; host or cells: BHK cells (parent BHKTS13), clone FCW467-12A/KZ10-1, with CRE luciferase
As to the kind of experiment: GLP-1 receptor binding, 125I-GLP-1 displacement SPA on isolated membranes. The following applies: displacement of 125I-GLP-1 from membranes; read-out: IC50 GLP-1R. Summed up:
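SPA displacement of 125I-GLP-1(7-36)NH2 from membranes of BHK cells expressing human GLP-1 receptor, with WGA beads, in 50 mM HEPES, 5 mM EGTA, 5 mM MgCl2, 0.005% Tween 20, pH 7.4. Incubated 2 h at 30°C; IC50 by non-linear regression, run at ≤0.001% or 2.0% final serum albumin.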
A general note: Displacement assays read how much labelled ligand stays bound in the presence of the test substance.

Data set [4] has as its target T1, human GLP-1 receptor. As to the kind of experiment: GLP-1 receptor potency, CRE luciferase reporter gene assay in BHK cells. The following applies: BHK cells expressing human GLP-1 receptor, read-out: EC50 GLP-1R. It counts as cell-based. The essentials: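 BHK cells stably expressing human GLP-1 receptor with CRE-luciferase reporter, 5×10EE3 cells/well in phenol red-free DMEM with 10 mM Hepes, 2% ovalbumin, 0.2% Pluronic F-68. Compounds at final 1×10EE-6 to 1×10EE-13 M, 3 h at 37° C; steadylite luminescence; EC50 by four-parameter fit, in pM.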
In general terms: Reporter assays use an easily measured gene product as a stand-in for the process of interest.

T1 sequence (P43220 24-463): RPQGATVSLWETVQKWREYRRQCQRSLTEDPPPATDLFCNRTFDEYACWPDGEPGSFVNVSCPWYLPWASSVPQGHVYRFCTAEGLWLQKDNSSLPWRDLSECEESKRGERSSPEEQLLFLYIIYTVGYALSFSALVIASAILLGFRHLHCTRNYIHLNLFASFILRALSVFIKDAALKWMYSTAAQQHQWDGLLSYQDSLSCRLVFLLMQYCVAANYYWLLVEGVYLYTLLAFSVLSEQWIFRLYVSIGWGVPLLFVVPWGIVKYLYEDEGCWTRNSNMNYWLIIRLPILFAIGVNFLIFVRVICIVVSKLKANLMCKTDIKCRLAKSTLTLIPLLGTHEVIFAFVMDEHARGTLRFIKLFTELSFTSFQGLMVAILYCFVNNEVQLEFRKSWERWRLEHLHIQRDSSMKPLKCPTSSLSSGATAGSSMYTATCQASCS

As for `CC(C)C[C@H](NC(=O)[C@H](Cc1ccc(O)cc1)NC(=O)[C@H](CCCCN)NC(=O)[C@H](CO)NC(=O)[C@H](CC(C)C)NC(=O)[C@H](CC(=O)O)NC(=O)[C@H](CO)NC(=O)[C@@H](NC(=O)[C@H](Cc1ccccc1)NC(=O)[C@@H](NC(=O)CNC(=O)[C@H](CCC(N)=O)NC(=O)C(C)(C)NC(=O)[C@@H](N)Cc1c[nH]cn1)[C@@H](C)O)[C@@H](C)O)C(=O)N[C@@H](CCC(=O)O)C(=O)N[C@@H](CO)C(=O)N[C@@H](CCCCN)C(=O)N[C@@H](CCCNC(=N)N)C(=O)N[C@@H](C)C(=O)N[C@@H](CCCNC(=N)N)C(=O)N[C@@H](CCC(=O)O)C(=O)N[C@@H](Cc1ccccc1)C(=O)N[C@H](C(=O)N[C@@H](CCC(N)=O)C(=O)N[C@@H](Cc1c[nH]c2ccccc12)C(=O)N[C@@H](CC(C)C)C(=O)N[C@@H](CC(C)C)C(=O)N[C@@H](CCCCNC(=O)CC[C@H](NC(=O)CC[C@H](NC(=O)COCCOCCNC(=O)COCCOCCNC(=O)CC[C@H](NC(=O)CCCCCCCCCCCCCCCCC(=O)O)C(=O)O)C(=O)O)C(=O)O)C(=O)N[C@H](C(N)=O)[C@@H](C)O)C(C)C` [Example 22, N^ε29-[(4S)-4-carboxy-4-[[(4S)-4-carboxy-4-[[2-[2-[2-[[2-[2-[2-[[(4S)-4-carboxy-4-(17-carboxyheptadecanoylamino)butanoyl]amino]ethoxy]ethoxy]acetyl]amino]ethoxy]ethoxy]acetyl]amino]butanoyl]amino]butanoyl]-[Aib2,Leu10,Glu15,Lys17,Arg20,Glu21,Leu27,Lys28]-Glucagon amide] (H-H[Aib]QGTFTSDLSKYLESKRAREFVQWLLK([γGlu-γGlu-AEEA-AEEA-γGlu-C18 diacid])T-NH2; N-terminus assumed), in data set [1], the “Purity loss; 14 days at 37° C.” value came out at 1%. The molecule also showed a THT assay Lag time (Ex. 76) in data set [2] of 45 h.
With `CC(C)C[C@H](NC(=O)[C@H](Cc1ccc(O)cc1)NC(=O)[C@H](CCCNC(=N)N)NC(=O)[C@H](CO)NC(=O)[C@@H](NC(=O)[C@H](CC(=O)O)NC(=O)[C@H](CO)NC(=O)[C@@H](NC(=O)[C@H](Cc1ccccc1)NC(=O)[C@@H](NC(=O)CNC(=O)[C@H](CCC(N)=O)NC(=O)C(C)(C)NC(=O)[C@@H](N)Cc1c[nH]cn1)[C@@H](C)O)[C@@H](C)O)C(C)C)C(=O)N[C@@H](CC(=O)O)C(=O)N[C@@H](C)C(=O)N[C@@H](CCCNC(=N)N)C(=O)N[C@@H](CCCNC(=N)N)C(=O)N[C@@H](C)C(=O)N[C@@H](CCC(N)=O)C(=O)N[C@@H](CC(=O)O)C(=O)N[C@@H](Cc1ccccc1)C(=O)N[C@H](C(=O)N[C@@H](CCC(N)=O)C(=O)N[C@@H](Cc1c[nH]c2ccccc12)C(=O)N[C@@H](CC(C)C)C(=O)N[C@@H](CC(C)C)C(=O)N[C@@H](CCCCNC(=O)COCCOCCNC(=O)COCCOCCNC(=O)CC[C@H](NC(=O)CC[C@H](NC(=O)CC[C@H](NC(=O)CCCCCCCCCCCCCCCCC(=O)O)C(=O)O)C(=O)O)C(=O)O)C(=O)N[C@H](C(N)=O)[C@@H](C)O)C(C)C` [Example 72, N^ε28-[2-[2-[2-[(2-[2-[2-[[(4S)-4-carboxy-4-[[(4S)-4-carboxy-4-[[(4S)-4-carboxy-4-(17-carboxyheptadecanoylamino)butanoyl]amino]butanoyl]amino]butanoyl]amino]ethoxy]ethoxy]acetyl]amino]ethoxy]ethoxy]acetyl]-[Aib2,Val10,Arg12,Ala16,Leu27,Lys28]-Glucagon amide] (H-H[Aib]QGTFTSDVSRYLDARRAQDFVQWLLK([AEEA-AEEA-γGlu-γGlu-γGlu-C18 diacid])T-NH2), the pIC50 in data set [3] was 9.30. In addition, in data set [4], the pEC50 was 11.52.
The matching figures for `CC(C)C[C@H](NC(=O)[C@H](CC(=O)O)NC(=O)[C@H](CC(C)C)NC(=O)[C@H](Cc1ccc(O)cc1)NC(=O)[C@H](CCCNC(=N)N)NC(=O)[C@H](CO)NC(=O)[C@@H](NC(=O)[C@H](CC(=O)O)NC(=O)[C@H](CO)NC(=O)[C@@H](NC(=O)[C@H](Cc1ccccc1)NC(=O)[C@@H](NC(=O)CNC(=O)[C@H](CCC(N)=O)NC(=O)C(C)(C)NC(=O)[C@@H](N)Cc1c[nH]cn1)[C@@H](C)O)[C@@H](C)O)C(C)C)C(=O)N[C@@H](CCCNC(=N)N)C(=O)N[C@@H](CCCNC(=N)N)C(=O)N[C@@H](C)C(=O)N[C@@H](CCC(N)=O)C(=O)N[C@@H](CC(=O)O)C(=O)N[C@@H](Cc1ccccc1)C(=O)N[C@H](C(=O)N[C@@H](CCC(N)=O)C(=O)N[C@@H](Cc1c[nH]c2ccccc12)C(=O)N[C@@H](CC(C)C)C(=O)N[C@@H](CC(C)C)C(=O)N[C@@H](CCCCNC(=O)COCCOCCNC(=O)COCCOCCNC(=O)CC[C@H](NC(=O)CC[C@H](NC(=O)CC[C@H](NC(=O)CCCCCCCCCCCCCCCCC(=O)O)C(=O)O)C(=O)O)C(=O)O)C(=O)N[C@H](C(N)=O)[C@@H](C)O)C(C)C` [Example 73, N^ε28-[2-[2-[2-[[2-[2-[2-[[(4S)-4-carboxy-4-[[(4S)-4-carboxy-4-[[(4S)-4-carboxy-4-(17-carboxyheptadecanoylamino)butanoyl]amino]butanoyl]amino]butanoyl]amino]ethoxy]ethoxy]acetyl]amino]ethoxy]ethoxy]acetyl]-[Aib2,Val10,Arg12,Leu16,Leu27,Lys28]-Glucagon amide] (H-H[Aib]QGTFTSDVSRYLDLRRAQDFVQWLLK([AEEA-AEEA-γGlu-γGlu-γGlu-C18 diacid])T-NH2): 8.82 and 11.30.
